Values quoted from earlier work as cited in US20230312573A1, “NOVEL SALTS, CRYSTALS, AND CO-CRYSTALS” (INTRA-CELLULAR THERAPIES, INC., priority 2021, published 2023).

Columns and labels:
5-HT2C receptor = molecular target: T1, 5-HT2C receptor (Homo sapiens, UniProt P28335)
T1 sequence (P28335 33-458): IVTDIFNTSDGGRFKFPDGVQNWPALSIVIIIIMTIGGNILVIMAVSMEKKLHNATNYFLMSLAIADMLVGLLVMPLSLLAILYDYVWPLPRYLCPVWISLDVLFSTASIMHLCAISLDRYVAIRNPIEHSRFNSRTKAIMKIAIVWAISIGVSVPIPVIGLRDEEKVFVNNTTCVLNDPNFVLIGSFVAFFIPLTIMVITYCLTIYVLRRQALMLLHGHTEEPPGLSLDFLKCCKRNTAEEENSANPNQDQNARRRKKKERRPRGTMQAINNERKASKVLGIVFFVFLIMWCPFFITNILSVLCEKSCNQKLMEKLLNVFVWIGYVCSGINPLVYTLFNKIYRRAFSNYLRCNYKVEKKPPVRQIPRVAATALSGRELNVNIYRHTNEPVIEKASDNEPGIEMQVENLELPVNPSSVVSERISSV

[1] = molecular target: H1 histaminergic receptor (Homo sapiens, UniProt P35367)
Chain of H1 histaminergic receptor (P35367 whole entry): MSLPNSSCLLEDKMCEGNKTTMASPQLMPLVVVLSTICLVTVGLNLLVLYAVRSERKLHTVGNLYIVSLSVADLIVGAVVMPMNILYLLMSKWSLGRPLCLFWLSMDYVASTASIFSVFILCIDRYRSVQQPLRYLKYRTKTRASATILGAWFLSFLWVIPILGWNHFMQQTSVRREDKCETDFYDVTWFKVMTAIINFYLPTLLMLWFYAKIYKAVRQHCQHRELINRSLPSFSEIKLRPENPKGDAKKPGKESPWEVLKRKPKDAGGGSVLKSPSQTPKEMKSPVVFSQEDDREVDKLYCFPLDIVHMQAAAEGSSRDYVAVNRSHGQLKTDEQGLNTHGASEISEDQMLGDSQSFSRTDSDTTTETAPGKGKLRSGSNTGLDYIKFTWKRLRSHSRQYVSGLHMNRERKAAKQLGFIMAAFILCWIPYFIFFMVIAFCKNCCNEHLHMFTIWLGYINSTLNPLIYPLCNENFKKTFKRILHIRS

CN1CCN2c3c(cccc31)[C@@H]1CN(CCCC(=O)c3ccc(F)cc3)CC[C@@H]12 [Lumateperone, 1-(4-fluoro-phenyl)-4-((6bR,10aS)-3-methyl-2,3,6b,9,10,10a-hexahydro-1H,7H-pyrido[3′,4′:4,5]pyrrolo[1,2,3-de]quinoxalin-8-yl)-butan-1-one]
negligible binding: binding to 5-HT2C receptors (5-HT2C receptor) | binding to H1 histaminergic receptors [1] | binding to muscarinic receptors (muscarinic receptor)
